According to patent US8673922B2, “Azaindazole compounds” (Bristol-Myers Squibb Company, priority 2010, dated 2014):

molecular target: T1, Human CYP17 (Homo sapiens, UniProt P05093); assay: CYP17 Total SPA Assay; type: biochemical; conditions: microsomes from HEK2 cells stably transfected with CYP17; 3H-Pregnenolone 1 uM, NADPH 2 mM; 45 minutes at room temperature
T1 construct: expressed in transfected cells; host or cells: HEK2 (sic); microsomes prepared as a high-speed pellet
T1 sequence (P05093 1-508): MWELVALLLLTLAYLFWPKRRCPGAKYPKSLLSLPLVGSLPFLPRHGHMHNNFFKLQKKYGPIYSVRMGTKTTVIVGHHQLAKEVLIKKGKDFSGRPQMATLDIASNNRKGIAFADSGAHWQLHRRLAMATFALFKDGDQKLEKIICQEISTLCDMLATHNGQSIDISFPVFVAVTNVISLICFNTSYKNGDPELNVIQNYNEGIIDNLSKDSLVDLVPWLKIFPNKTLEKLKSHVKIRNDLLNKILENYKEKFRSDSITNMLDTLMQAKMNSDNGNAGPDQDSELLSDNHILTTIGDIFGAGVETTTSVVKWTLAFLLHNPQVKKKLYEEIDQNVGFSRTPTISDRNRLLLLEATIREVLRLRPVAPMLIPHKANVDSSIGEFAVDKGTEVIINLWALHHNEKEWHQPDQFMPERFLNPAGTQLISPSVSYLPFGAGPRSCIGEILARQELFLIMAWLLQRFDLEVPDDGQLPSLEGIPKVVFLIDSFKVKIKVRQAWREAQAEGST
Procedure: The assays were performed in U-bottom 384-well optiplates. The final assay volume was 15 μl prepared from 7.5 μl additions of microsomes (prepared as a high-speed pellet from homogenized HEK2 cells stably transfected with CYP17), substrates (3 H-Pregnenolone and NADPH) and test compounds in assay buffer (50 mM Potassium phosphate pH 7.2, 10% glycerol). The reaction was initiated by the combination of the microsomes and substrates in wells containing compound. The reaction was incubated at room temperature for 45 minutes and terminated by adding 7.5 μl of 0.2N HCl to each well. Following an incubation period of 10 minutes, anti-DHEA-coated SPA beads were added to the terminated reaction. The plate was sealed and incubated overnight with shaking at 4° C. The beads were allowed to settle in the plate for 1 hour and the plate read on a Topcount (Perkin-Elmer) plate reader.
Inhibition data were calculated by comparison to no enzyme control reactions for 100% inhibition and vehicle-only reactions for 0% inhibition. The final concentration of reagents in the assays are NADPH, 2 mM; 3H-Pregnenolone, 1 uM; microsomes, 1.25 ug/ml; Anti-DHEA-SPA beads (0.125 mg/well) in 0.5% Triton X-100 and DMSO, 0.05%. Dose response curves were generated to determine the concentration required inhibiting 50% of enzyme activity (IC50). Compounds were dissolved at 10 mM in dimethylsulfoxide (DMSO) and evaluated at eleven concentrations, each in duplicate. IC50 values were derived by non-linear regression analysis.
Table 5 below lists the IC50 values for the following examples of this invention measured in the Total CYP17 SPA Assay hereinabove.

Structure (SMILES)	IC50
Cc1ccncc1-c1ccnc2c1cnn2-c1ncccc1Br [Example 46, 1-(3-bromopyridin-2-yl)-4-(4-methylpyridin-3-yl)-1H-pyrazolo[3,4-b]pyridine]	10 nM
Nc1ncncc1-c1ccnc2c1cnn2-c1ccccn1 [Example 72, 5-(1-(pyridin-2-yl)-1H-pyrazolo[3,4-b]pyridin-4-yl)pyrimidin-4-amine]	525 nM
Cc1ccncc1-c1ccnc2c1cnn2-c1cccc(S(N)(=O)=O)c1 [Example 80, 3-(4-(4-methylpyridin-3-yl)-1H-pyrazolo[3,4-b]pyridin-1-yl)benzenesulfonamide]	18 nM
Nc1ncncc1-c1ccnc2c1cnn2-c1ccc(F)cc1 [Example 8, 5-(1-(4-fluorophenyl)-1H-pyrazolo[3,4-b]pyridin-4-yl)pyrimidin-4-amine]	23 nM
Cc1ncncc1-c1ccnc2c1cnn2-c1ccc(F)cc1F [Example 64, 1-(2,4-difluorophenyl)-4-(4-methylpyrimidin-5-yl)-1H-pyrazolo[3,4-b]pyridine]	15 nM
Nc1ncncc1-c1ccnc2c1cnn2-c1ccc(F)c(F)c1F [Example 70, 5-(1-(2,3,4-trifluorophenyl)-1H-pyrazolo[3,4-b]pyridin-4-yl)pyrimidin-4-amine]	105 nM
Cc1ccncc1-c1ccnc2c1cnn2C1CCOCC1 [Example 33, 4-(4-methylpyridin-3-yl)-1-(tetrahydro-2H-pyran-4-yl)-1H-pyrazolo[3,4-b]pyridine]	393 nM
Cc1ncncc1-c1ccnc2c1cnn2-c1ccc(F)cc1 [Example 2, 1-(4-fluorophenyl)-4-(4-methylpyrimidin-5-yl)-1H-pyrazolo[3,4-b]pyridine]	186 nM
OC1(c2ccncc2-c2ccnc3c2cnn3-c2ccc(F)cc2)COC1 [Example 9, 3-(3-(1-(4-fluorophenyl)-1H-pyrazolo[3,4-b]pyridin-4-yl)pyridin-4-yl)oxetan-3-ol]	5.9 nM
Cc1ccncc1-c1ccnc2c1cnn2Cc1c(F)cccc1Cl [Example 55, 1-(2-chloro-6-fluorobenzyl)-4-(4-methylpyridin-3-yl)-1H-pyrazolo[3,4-b]pyridine]	807 nM
Nc1ncncc1-c1ccnc2c1cnn2-c1ccc(F)cc1F [Example 67, 5-(1-(2,4-difluorophenyl)-1H-pyrazolo[3,4-b]pyridin-4-yl)pyrimidin-4-amine]	5.8 nM
Cc1ccncc1-c1ccnc2c1cnn2-c1ccc(C(F)(F)F)cn1 [Example 39, 4-(4-methylpyridin-3-yl)-1-(5-(trifluoromethyl)pyridin-2-yl)-1H-pyrazolo[3,4-b]pyridine]	100 nM

The remaining lines, values ahead:

IC50	Structure (SMILES)
704 nM	Nc1ncncc1-c1ccnc2c1cnn2-c1ccc(F)c(Cl)c1 [Example 96, 5-(1-(3-chloro-4-fluorophenyl)-1H-pyrazolo[3,4-b]pyridin-4-yl)-4-pyrimidinamine]
320 nM	Fc1ccc(-n2ncc3c(-c4cncnc4C(F)(F)F)ccnc32)cc1F [Example 100, 1-(3,4-difluorophenyl)-4-(4-(trifluoromethyl)-5-pyrimidinyl)-1H-pyrazolo[3,4-b]pyridine]
622 nM	Cc1csc(-n2ncc3c(-c4cnccc4C)ccnc32)n1 [Example 88, 4-methyl-2-(4-(4-methylpyridin-3-yl)-1H-pyrazolo[3,4-b]pyridin-1-yl)thiazole]
159 nM	Fc1ccc(-n2ncc3c(-c4cncnc4C(F)(F)F)ccnc32)c(F)c1 [Example 93, 1-(2,4-difluorophenyl)-4-(4-(trifluoromethyl)pyrimidin-5-yl)-1H-pyrazolo[3,4-b]pyridine]
89 nM	Cc1ccncc1-c1ccnc2c1cnn2CC(F)(F)F [Example 84, 4-(4-methylpyridin-3-yl)-1-(2,2,2-trifluoroethyl)-1H-pyrazolo[3,4-b]pyridine]
123 nM	Fc1ccc(-n2ncc3c(-c4cncnc4OCC(F)(F)F)ccnc32)cc1 [Example 106, 1-(4-fluorophenyl)-4-(4-(2,2,2-trifluoroethoxy)pyrimidin-5-yl)-1H-pyrazolo[3,4-b]pyridine]

tested on: cynomolgus monkeys; assay: 1-Day Cyno PK/PD Study; type: in vivo, cynomolgus monkey; conditions: plasma, single oral dose 1 mg/Kg in 80% PEG-400/water, monitored over 24 hours
Procedure: Example 67 was formulated in 80% PEG-400/water at a volume of 1 mL/kg of monkey at a dose of 1 mg/kg. The formulation was then dosed orally at time=0 hours and blood samples were taken over a 24 hour period to monitor for drug exposure and testosterone levels. (♦) Example 67 (nM); (▪) testosterone (ng/dL).
• Animals: All procedures involving animals and their care were conducted in conformity with the guidelines that are in compliance with the Bristol-Myers Squibb Institutional Animal Care and Use Committee. Fully mature male cynomolgus monkeys (>4 yrs of age; 5-6 kg) were from an in-house colony. All the monkeys used had chronically implanted femoral vein access ports. For oral studies, all animals were fasted overnight prior to dosing and were fed 4 hr after dosing. […] The plasma fraction was immediately separated by centrifugation (14,000 rpm, 10 min, 4° C.), frozen on dry ice, and stored at −20° C. until the samples were analyzed. • Analysis of Tested Compound: Plasma samples were thawed and treated with two volumes of acetonitrile containing internal standard. After centrifugation to remove precipitated proteins, an aliquot of supernatant was analyzed by LC/MS/MS. […]

Structure (SMILES)	testosterone levels
Nc1ncncc1-c1ccnc2c1cnn2-c1ccc(F)cc1F [Example 67, 5-(1-(2,4-difluorophenyl)-1H-pyrazolo[3,4-b]pyridin-4-yl)pyrimidin-4-amine]	~30 ng/dL
